# Measured values taken from patent US20210017295A1, “BISPECIFIC BINDING AGENTS AND USES THEREOF” (MEMORIAL SLOAN KETTERING CANCER CENTER, priority 2018, published 2021).
# Like-named read-outs stand apart in the source and are kept apart here.
# Tested on: s.c. HER2(+) BT-474 tumors
# Format: in vivo, mouse
# [1] = PRIT, CA 28% w/w 70 μg, 24 h p.i., mean ± SD
# [2] = no PRIT, only ~16.8 MBq (90 pmol), 24 h p.i., mean ± SEM
# [3] = optimized PRIT, 1.0 h p.i., mean ± SEM
# [4] = optimized PRIT, 24 h p.i., mean ± SEM
# [5] = optimized PRIT, 96 h p.i., mean ± SEM
# [6] = optimized PRIT, 336 h p.i., mean ± SEM
# [7] = optimized PRIT, […] p.i., mean ± SEM
smiles,measurement,setting,value
Nc1ccc(CC2CN(CC(=O)[O-])CCN(CC(=O)[O-])CCN(CC(=O)[O-])CCN2CC(=O)[O-])cc1.[177Lu+3] (centres unmarked) [^177Lu-DOTA-Bn],^177Lu activity in Kidneys,[1],0.75 ± 0.08 % IA/g
same,^177Lu activity in Large Int.,[1],0.19 ± 0.04 % IA/g
same,^177Lu activity in Liver,[1],0.33 ± 0.02 % IA/g
same,^177Lu activity in Lungs,[1],0.25 ± 0.05 % IA/g
same,^177Lu activity in Muscle,[1],0.08 ± 0.02 % IA/g
same,^177Lu activity in Small Int.,[1],0.07 ± 0.01 % IA/g
same,^177Lu activity in Spleen,[1],0.73 ± 0.18 % IA/g
same,^177Lu activity in Stomach,[1],0.05 ± 0.02 % IA/g
same,^177Lu activity in Tumor,[1],6.98 ± 3.15 % IA/g
same,^177Lu activity in Blood,[2],0.002±0.00 % IA/g
same,^177Lu activity in Kidneys,[2],0.38±0.01 % IA/g
same,^177Lu activity in Liver,[2],0.04 ± 0.01 % IA/g
same,^177Lu activity in Spleen,[2],0.02 ± 0.00 % IA/g
same,^177Lu activity in Tumor,[2],0.07±0.01 % IA/g
same,"^177Lu activity in tumor, range","optimized PRIT, 1-24 h p.i.",5-8 % IA/g
same,"Tumor-to-tissue ratio, Blood",[3],10.7 ± 1.3
same,"Tumor-to-tissue ratio, Bone",[3],37.3 ± 6.0
same,"Tumor-to-tissue ratio, Heart",[3],38.7 ± 6.7
same,"Tumor-to-tissue ratio, Kidneys",[3],5.7 ± 0.5
same,"Tumor-to-tissue ratio, Large Int.",[3],3.0 ± 0.5
same,"Tumor-to-tissue ratio, Liver",[3],8.7 ± 0.9
same,"Tumor-to-tissue ratio, Lungs",[3],16.6 ± 2.3
same,"Tumor-to-tissue ratio, Muscle",[3],35.7 ± 3.6
same,"Tumor-to-tissue ratio, Small Int.",[3],6.0 ± 1.5
same,"Tumor-to-tissue ratio, Spleen",[3],44.9 ± 6.3
same,"Tumor-to-tissue ratio, Stomach",[3],17.8 ± 4.6
same,^177Lu activity in Blood,[3],0.62 ± 0.06 % IA/g
same,^177Lu activity in Bone,[3],0.18 ± 0.03 % IA/g
same,^177Lu activity in Heart,[3],0.17 ± 0.03 % IA/g
same,^177Lu activity in Kidneys,[3],1.17 ± 0.02 % IA/g
same,^177Lu activity in Large Int.,[3],2.22 ± 0.37 % IA/g
same,^177Lu activity in Liver,[3],0.76 ± 0.06 % IA/g
same,^177Lu activity in Lungs,[3],0.40 ± 0.05 % IA/g
same,^177Lu activity in Muscle,[3],0.19 ± 0.01 % IA/g
same,^177Lu activity in Small Int.,[3],1.11 ± 0.27 % IA/g
same,^177Lu activity in Spleen,[3],0.15 ± 0.02 % IA/g
same,^177Lu activity in Stomach,[3],0.37 ± 0.09 % IA/g
same,^177Lu activity in Tumor,[3],6.65 ± 0.46 % IA/g
same,"Tumor-to-tissue ratio, Blood",[4],26.7±9.0
same,"Tumor-to-tissue ratio, Bone",[4],189.6 ± 46.7
same,"Tumor-to-tissue ratio, Heart",[4],105.3 ± 27.7
same,"Tumor-to-tissue ratio, Kidneys",[4],10.4±1.3
same,"Tumor-to-tissue ratio, Large Int.",[4],41.7 ± 5.4
same,"Tumor-to-tissue ratio, Liver",[4],28.3 ± 8.3
same,"Tumor-to-tissue ratio, Lungs",[4],38.7 ± 10.0
same,"Tumor-to-tissue ratio, Muscle",[4],118.5 ± 26.8
same,"Tumor-to-tissue ratio, Small Int.",[4],140.4 ± 22.8
same,"Tumor-to-tissue ratio, Spleen",[4],12.6 ± 4.5
same,"Tumor-to-tissue ratio, Stomach",[4],122.3 ± 17.1
same,"Tumor-to-tissue ratio, Blood",[5],63.6 ± 12.2
same,"Tumor-to-tissue ratio, Bone",[5],6.0 ± 1.7
same,"Tumor-to-tissue ratio, Heart",[5],42.4 ± 10.3
same,"Tumor-to-tissue ratio, Kidneys",[5],8.4 ± 1.7
same,"Tumor-to-tissue ratio, Large Int.",[5],31.8 ± 8.6
same,"Tumor-to-tissue ratio, Liver",[5],10.1 ± 2.6
same,"Tumor-to-tissue ratio, Lungs",[5],34.7 ± 8.8
same,"Tumor-to-tissue ratio, Muscle",[5],22.5 ± 8.7
same,"Tumor-to-tissue ratio, Small Int.",[5],44.0 ± 12.6
same,"Tumor-to-tissue ratio, Spleen",[5],12.9 ± 2.9
same,"Tumor-to-tissue ratio, Stomach",[5],57.3 ± 13.7
same,^177Lu activity in Blood,[5],0.04 ± 0.00 % IA/g
same,^177Lu activity in Bone,[5],0.38 ± 0.09 % IA/g
same,^177Lu activity in Heart,[5],0.05 ± 0.01 % IA/g
same,^177Lu activity in Kidneys,[5],0.27 ± 0.03 % IA/g
same,^177Lu activity in Large Int.,[5],0.07 ± 0.01 % IA/g
same,^177Lu activity in Liver,[5],0.23 ± 0.04 % IA/g
same,^177Lu activity in Lungs,[5],0.07 ± 0.01 % IA/g
same,^177Lu activity in Muscle,[5],0.10 ± 0.03 % IA/g
same,^177Lu activity in Small Int.,[5],0.05 ± 0.01 % IA/g
same,^177Lu activity in Spleen,[5],0.18 ± 0.02 % IA/g
same,^177Lu activity in Stomach,[5],0.04 ± 0.01 % IA/g
same,^177Lu activity in Tumor,[5],2.29±0.41 % IA/g
same,"Tumor-to-tissue ratio, Blood",[6],160.8 ± 30.3
same,"Tumor-to-tissue ratio, Bone",[6],10.0 ± 3.6
same,"Tumor-to-tissue ratio, Heart",[6],37.8 ± 7.7
same,"Tumor-to-tissue ratio, Kidneys",[6],3.8 ± 0.9
same,"Tumor-to-tissue ratio, Large Int.",[6],75.6 ± 26.4
same,"Tumor-to-tissue ratio, Liver",[6],3.7 ± 1.0
same,"Tumor-to-tissue ratio, Lungs",[6],29.2 ± 8.2
same,"Tumor-to-tissue ratio, Muscle",[6],64.3 ± 18.4
same,"Tumor-to-tissue ratio, Small Int.",[6],116.9 ± 30.0
same,"Tumor-to-tissue ratio, Spleen",[6],3.5 ± 0.9
same,"Tumor-to-tissue ratio, Stomach",[6],51.4 ± 12.4
same,^177Lu activity in Blood,[6],0.002 ± 0.00 % IA/g
same,^177Lu activity in Bone,[6],0.03 ± 0.01 % IA/g
same,^177Lu activity in Heart,[6],0.01 ± 0.00 % IA/g
same,^177Lu activity in Kidneys,[6],0.08 ± 0.01 % IA/g
same,^177Lu activity in Large Int.,[6],0.004 ± 0.00 % IA/g
same,^177Lu activity in Liver,[6],0.09 ± 0.02 % IA/g
same,^177Lu activity in Lungs,[6],0.01 ± 0.00 % IA/g
same,^177Lu activity in Muscle,[6],0.01 ± 0.00 % IA/g
same,^177Lu activity in Small Int.,[6],0.003 ± 0.00 % IA/g
same,^177Lu activity in Spleen,[6],0.09 ± 0.02 % IA/g
same,^177Lu activity in Stomach,[6],0.01 ± 0.00 % IA/g
same,^177Lu activity in Tumor,[6],0.32±0.06 % IA/g
same,approximate tumor clearance half-life,"optimized PRIT, R^2=0.894",~38.6 h
same,"Tumor-to-tissue ratio, Blood",[7],12.1 ± 1.5
same,"Tumor-to-tissue ratio, Bone",[7],37.5 ± 4.3
same,"Tumor-to-tissue ratio, Heart",[7],37.5 ± 5.2
same,"Tumor-to-tissue ratio, Kidneys",[7],5.2 ± 0.5
same,"Tumor-to-tissue ratio, Large Int.",[7],1.6 ± 0.3
same,"Tumor-to-tissue ratio, Liver",[7],12.6 ± 1.6
same,"Tumor-to-tissue ratio, Lungs",[7],13.5 ± 1.6
same,"Tumor-to-tissue ratio, Muscle",[7],25.8 ± 5.1
same,"Tumor-to-tissue ratio, Small Int.",[7],10.6 ± 3.7
same,"Tumor-to-tissue ratio, Spleen",[7],14.9 ± 1.8
same,"Tumor-to-tissue ratio, Stomach",[7],23.6 ± 7.7
same,^177Lu activity in Blood,[7],0.41 ± 0.04 % IA/g
same,^177Lu activity in Bone,[7],0.13 ± 0.01 % IA/g
same,^177Lu activity in Heart,[7],0.13 ± 0.02 % IA/g
same,^177Lu activity in Kidneys,[7],0.95 ± 0.05 % IA/g
same,^177Lu activity in Large Int.,[7],3.18 ± 0.52 % IA/g
same,^177Lu activity in Liver,[7],0.39 ± 0.04 % IA/g
same,^177Lu activity in Lungs,[7],0.37 ± 0.03 % IA/g
same,^177Lu activity in Muscle,[7],0.19 ± 0.04 % IA/g
same,^177Lu activity in Small Int.,[7],0.47 ± 0.16 % IA/g
same,^177Lu activity in Spleen,[7],0.33 ± 0.03 % IA/g
same,^177Lu activity in Stomach,[7],0.21 ± 0.07 % IA/g
same,^177Lu activity in Tumor,[7],4.95 ± 0.34 % IA/g
